Experiment: gradient 5% acetonitrile 3 min, to 50% in 2 min, to 85% in 15 min, held 3 min, 100 µL/min
Details: column: Zorbax Extend-C18 2.1 x 50 mm; eluents: water / acetonitrile, 0.1% formic acid
Outline: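 Retention times of pure standards were taken from adduct peaks that were selected by computer and manually inspected. Over 3 months, mixtures of ~100 molecules were run by HPLC–quadrupole time-of-flight mass spectrometry in positive and negative ionization mode. The Zorbax Extend-C18 column (2.1 × 50 mm, 1.8 μm) ran at 100 μL/min in water and acetonitrile, each containing 0.1% formic acid, with 40 μL dead volume and 900 μL dwell volume.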

RP-LC retention time [s]	SMILES
772	COc1ccc2nc(C(=O)NCc3ccccc3)cn2n1
573	COc1ccc(CN(C)Cc2cc(=O)n3ccccc3n2)cc1OC
626	Cc1ccc(NC(=O)CN2CCc3[nH]c4c(C)c(C)ccc4c(=O)c3C2)cc1
927	CS(=O)(=O)N1CCCc2cc(C(=O)Nc3ccccc3Br)ccc21
697	Cc1ccc(NC(=O)C2CCN(S(=O)(=O)c3ccc4c(c3)sc(=O)n4C)CC2)nc1
779	CC1=C(c2ccc(Cl)cc2)S(=O)(=O)N=C1N1CCC(C(=O)NC(C)C)CC1
730	COc1ccc2c(c1)c(CN1CCC(C(=O)NCCC3=CCCCC3)CC1)cn2C
845	CCn1c(=O)sc2cc(S(=O)(=O)N3CCC(C(=O)NC4CCCC4)CC3)ccc21
612	CCOC(=O)CNC(=O)N1CCN(Cc2nc3cccnc3n2-c2cccc(F)c2)CC1
604	COc1ccc(C(=O)Nc2ccc(-c3cn4ccc(C)nc4n3)cc2)cc1OC
1000	COc1ccccc1C(=O)NC1(C(F)(F)F)C(=O)N(C2CCCC2)C(C)=C1C(C)=O (configuration not stated)
692	Cc1ccc2nc(-c3ccc(N4CCOCC4)cc3)c(Nc3ccc4c(c3)OCCO4)n2c1
891	COc1ccccc1CCC(=O)N1CCC[C@@H]1C(=O)NCCc1csc(-c2ccccc2)n1
635	COc1ccc(S(=O)(=O)N2CCc3c(C(=O)NCCN(C)C)cccc32)cc1
664	CN(C)C(CNC(=O)c1cc(-c2cccs2)on1)c1ccccc1 (configuration not stated)
673	O=C(CCC1CCN(c2cc(NC3CC3)ncn2)CC1)NCc1cc(F)cc(F)c1
951	O=S(=O)(c1ccc2nc(N3CCN(c4ccc(F)cc4)CC3)ccc2c1)N1CCCC1
676	COCCN1C(=O)Cc2ccccc2C1C(=O)NCc1ccco1 (configuration not stated)
842	Cc1noc2nc(C)n(CC(=O)NC(C)CCc3ccccc3)c(=O)c12 (configuration not stated)
722	CCn1c(=O)c(C(=O)NCCN(C)C2CCCCC2)nc2cccnc21
676	COc1ccc(-c2nc3cnccn3c2NCCC(=O)Nc2ccc3c(c2)OCCO3)cc1
943	COC(=O)c1cc2c(cc1NC(=O)C1CCCN(c3ncnc4c3nc3n4CCCCC3)C1)OCO2 (configuration not stated)

RP-LC retention time [s]	SMILES
996	CCOc1ccc(-c2csc(C)n2)cc1S(=O)(=O)NCc1ccccc1
785	O=C(Nc1ccc(F)cc1F)[C@@H]1OCC(=O)N(C2CC2)[C@H]1c1ccccc1
1150	O=C(Cc1ccccc1)N1CC(Oc2ccc(-c3nc(-c4ccccc4)no3)cc2)C1
930	Cc1ccc(CNC(=O)Cn2nc3cc(-c4ccccc4)nc(C)n3c2=O)cc1
823	CC(C)(C)C(=O)Nc1nc2cc3c(cc2s1)OCO3
736	Cc1nnc([C@@H]2CC(F)(F)CN2C(=O)COc2ccc(F)cc2)o1
622	Cc1nn(C(C)C(=O)NCCC(C)C)c(=O)c2nn(-c3ccccc3)c(C)c12 (configuration not stated)
660	COc1cc(-n2cnc3cc(C(=O)NCC4CCCO4)ccc32)cc(OC)c1OC (configuration not stated)
544	Cc1csc2nc(CNS(=O)(=O)c3cccnc3)cn12
1130	O=S(=O)(c1cccc(Br)c1)N1CCc2nc(-c3ccccc3)ncc2C1
891	CN(CC1CCCO1)S(=O)(=O)c1ccc(C(=O)Nc2ccc3sccc3c2)cc1 (configuration not stated)
1040	O=C(Nc1ccccc1-c1nc2ccccc2[nH]1)c1cccc([N+](=O)[O-])c1
595	CN(C)C(=O)c1nc2ccccn2c1-c1ccsc1
933	Cn1nc(-c2nc(Cc3ccccc3)no2)c2c1CCN(C(=O)NC1CCCCC1)C2
921	CCOc1ccc(-c2cn3ccn(-c4ccc(C)cc4C)c(=O)c3n2)cc1
882	CCOc1ccc(N2CC(c3nc(-c4ccc(OC)c(OC)c4)no3)CC2=O)cc1 (configuration not stated)
618	O=C(NCc1ccncc1)c1cc2cc(Cl)ccc2[nH]1
589	COc1cccc(CN2CCC3(CC2)NCCc2c3[nH]c3ccc(OC)cc23)c1
842	Cc1ccc(C)c(CNC(=O)c2cc3n(n2)CC(C)(C(=O)NCc2ccc(F)cc2)N(C)C3=O)c1 (configuration not stated)
805	O=C(Cc1ccsc1)N1CCCC1(CO)Cc1ccccc1 (configuration not stated)
655	CC(=O)N1CCC(C(=O)NC2CCCN(c3cc(-c4ccc(Cl)cc4)[nH]n3)C2)CC1 (configuration not stated)
842	CCOC(=O)c1ccc(NC(=O)c2ccccc2-c2ccccc2C(=O)O)cc1

RP-LC retention time [s]	SMILES
780	Cc1ccc(NC(=O)Cn2nc(N3CCOCC3)c3ccccc3c2=O)cc1Cl
980	Cc1cccc(-c2noc(C3CCCN3C(=O)Nc3ccccc3)n2)c1 (configuration not stated)
852	Cc1ccc(Nc2ncccc2S(N)(=O)=O)cc1C
662	NC(=O)C1CCN(C2CC(=O)N(c3ccc(Oc4ccccc4)cc3)C2=O)CC1 (configuration not stated)
854	CC(NC(=O)C1CCN(C(=O)c2ncn3c2COC(c2ccc(Cl)cc2)C3)CC1)c1ccccc1 (configuration not stated)
679	O=C(NCc1cc(F)cc(F)c1)C1CCN(c2cc(N3CCSCC3)ncn2)CC1
806	COc1ccc2nc(C(=O)NCc3ccccc3F)cn2n1
930	CCCCOc1ccc(CNC(=O)C2CCCN(C(=O)c3[nH]c(C)c(C(=O)OC)c3C)C2)cc1 (configuration not stated)
872	CN1CCN(C2Cc3ccccc3Sc3ccc(Cl)cc32)CC1 (configuration not stated)
719	COc1ccc2c(C)c(CCC(=O)N[C@H](C(=O)O)c3ccccc3)c(=O)oc2c1OC
738	Cc1ccc(-c2ncccc2CNS(=O)(=O)c2ccc(F)c(F)c2)cc1
747	O=C(Cc1cccs1)NCc1nnnn1-c1ccc(Cl)cc1
917	Cc1cc(C)cc(NC(=O)C(C)C2CCN(C(=O)Nc3ccc(F)cc3)CC2)c1 (configuration not stated)
918	O=C(NC1CCCCC1)C1c2cccn2CC(=O)N1Cc1ccc(F)cc1 (configuration not stated)
1190	COC(=O)c1ccc(NS(=O)(=O)c2cccc(-c3nc(-c4ccc(C)cc4)no3)c2)cc1
819	CC(C)CCNC(=O)C12CCCC=C1N(c1ccccc1)C(=O)CC2 (configuration not stated)
598	CCOC(=O)c1cc(S(=O)(=O)N2CCN(c3ccccn3)CC2)[nH]n1
576	CC(=O)N1CCN(c2nc(-c3ccncc3)nc3c2CCC3)CC1
680	Cc1nc(-c2ccc(N3CCN(S(=O)(=O)c4cccnc4)CC3)nc2)no1
763	O=C(NC1CCCC1)C1CCCN(c2ccc(=O)n(-c3ccc(F)cc3)n2)C1 (configuration not stated)
941	O=c1n(Cc2cccc(Br)c2)nc2c(S(=O)(=O)N3CCCCC3)cccn12
810	Cc1ccc(N2CCC(NC(=O)c3ccc(N(C)C)cc3)C2=O)cc1 (configuration not stated)

RP-LC retention time [s]	SMILES
801	CC(C)CCn1nc2ccc(S(=O)(=O)N3CCOCC3)cn2c1=O
684	COc1ccc(Cl)cc1NC(=O)NCC1(CO)CC1
738	Cc1ccc(Nc2c(-c3ccccc3O)nc3ncccn23)cc1Cl
597	COC(=O)c1c(C)[nH]c(C(=O)N2CCCC(C(=O)NCc3ccc(N(C)C)cc3)C2)c1C (configuration not stated)
849	COc1ccc(Cl)cc1S(=O)(=O)Nc1cccn2c(C3CCC3)nnc12
625	COc1cccc(Cn2c(C)c(CNCc3cccnc3)c(C(=O)O)c2C)c1
997	O=C(Nc1ccc(F)cc1F)C1CCN(S(=O)(=O)c2cc(-c3noc(C4CC4)n3)cs2)CC1
919	CCC[C@@H](NC(=O)N1C(=O)C(CC)(CC)[C@@H]1Oc1ccc(C(=O)N2CCN(C)CC2)cc1)c1ccc2c(c1)OCO2
1010	CC(C)c1ccc(S(=O)(=O)N2CCC(n3c(-c4ccoc4)nc4cccnc43)C2)cc1 (configuration not stated)
587	Cc1nn(CCCC(=O)N2CCN(c3ccccn3)CC2)c(=O)c2cc3sccc3n12
622	Cc1ccc2oc(-c3nnc(C(=O)NCCCN4CCN(C)CC4)o3)c(C)c2c1
562	Cc1ccc(Oc2cccc(C(=O)NCCNc3cc(N4CCCC4)nc(C)n3)c2)nn1
598	CC(C)CN1C(=O)c2cccn2CC1C(=O)NCCCOC1CCN(C(C)C)CC1 (configuration not stated)
818	Cc1noc2nc(CCC(=O)Nc3ccc(Cl)cc3F)nc(N3CCOCC3)c12
797	COc1cc(C)c(Cl)cc1S(=O)(=O)N1CCN(C(=O)c2ccco2)CC1
576	O=C(NCCCN1CCOCC1)C1=C2CCCN2c2ccc(F)cc2S1(=O)=O
678	O=C1CCCN1CCCN1C(=O)[C@H]2CN(Cc3cccc(OC(F)(F)F)c3)C[C@H]2C1=O
780	CCNC(=O)c1nc(C(=O)NCc2ccc(F)cc2F)cs1
1120	Cc1cc(=O)n(CC(=O)Nc2ccc(Cl)cc2)c(-c2ccc(F)cc2)n1
911	O=c1ccc(N2CCCN(S(=O)(=O)c3ccc(F)c(Cl)c3)CC2)nn1-c1ccccc1
667	CCOc1ccc(CC(=O)N2CCN(c3ccc(NC(=O)c4ccccc4)nn3)CC2)cc1

— the METLIN SMRT retention time set (Domingo-Almenara et al. 2019)
